# Values of other authors as cited in patent EP1228757B1 (Uni-Pharma Kleon Tsetis Pharmaceutical Laboratories S.A., priority 2001, dated 2002).
# System: albino rats
# Conditions: endo-peritoneally administered to albino rats
row,Compound,LD50
1,CC(O)CO (centres unmarked) [Propylene glycol],higher than 8000 mg/kg
2,Glycerol formal,3000 mg/kg
